# Reference: US9409976B2, “CDIM binding proteins and uses thereof” (IGM BIOSCIENCES, INC., priority 2012, dated 2016)
# Like-named read-outs stand apart in the source and are kept apart here.
# Tested on: B cells
# Assay: Combination of agents with CDIM binding proteins, cytotoxicity to B cells
# Type: cell-based
# [1] = combination with CDIM binding proteins
SMILES,Effect of combination with CDIM binding proteins [1],Effect of combination with CDIM binding proteins,"Effect of combination with CDIM binding proteins (combination with CDIM binding proteins, listed as vincristine)"
"Nc1ccn([C@@H]2O[C@H](CO)[C@@H](O)[C@@H]2O)c(=O)n1 [Ara-C (Cytarabine), Cytarabine]",Additive Effect,–,–
COc1cc2c(c(OC)c1OC)-c1ccc(OC)c(=O)cc1[C@@H](NC(C)=O)CC2 [Colchisine],Synergistic Effect,–,–
COc1cccc2c1C(=O)c1c(O)c3c(c(O)c1C2=O)C[C@@](O)(C(C)=O)C[C@@H]3O[C@H]1C[C@H](N)[C@H](O)[C@H](C)O1 [Daunorubicin],–,Additive Effect,–
"COc1cc([C@@H]2c3cc4c(cc3[C@@H](O[C@@H]3O[C@@H]5CO[C@@H](C)O[C@H]5[C@H](O)[C@H]3O)[C@H]3COC(=O)[C@H]23)OCO4)cc(OC)c1O [Etoposide (VP-16), Etoposide]",Additive Effect,–,–
COC(=O)Nc1nc2ccc(C(=O)c3cccs3)cc2[nH]1 [Nocodazole],Synergistic Effect,–,–
"CC(=O)O[C@H]1C(=O)[C@@]2(C)[C@H]([C@H](OC(=O)c3ccccc3)[C@]3(O)C[C@H](OC(=O)[C@H](O)[C@@H](NC(=O)c4ccccc4)c4ccccc4)C(C)=C1C3(C)C)[C@]1(OC(C)=O)CO[C@@H]1C[C@@H]2O [Paclitaxel (Taxol), Paclitaxel]",Possible/Undermined,–,–
CC[C@]1(O)C[C@H]2CN(CCc3c([nH]c4ccccc34)[C@@](C(=O)OC)(c3cc4c(cc3OC)N(C=O)[C@H]3[C@@](O)(C(=O)OC)[C@H](OC(C)=O)[C@]5(CC)C=CCN6CC[C@]43[C@@H]65)C2)C1 [Vincristine],Synergistic Effect,–,enhanced degree of cytotoxicity to B cells when compared to the additive effect of each single agent alone
